Like-named read-outs stand apart in the source and are kept apart here.
Tests used:
[1] = target: T1, human Gcg receptor (hGcgR) (Homo sapiens, UniProt P47871); experiment: [125I]-Glucagon binding, SPA with membranes of HEK293 cells expressing hGcgR; details: human GcgR; geometric mean (SEM, n); read-out: Binding Affinity Ki, nM (SEM, n) hGCGR
T1 construct: expressed in transfected cells; crude membranes

hGLP-1R = hGLP-1R (Homo sapiens, UniProt P43220); experiment: Functional cAMP formation (HTRF) in HEK-293 clonal cells expressing hGLP-1R, 0.1% bovine casein, without or with 1.0% human serum albumin; assay type: cell-based; design: expressed in transfected cells; details: for Emax: read-out: hGLP-1R Emax, % ± SEM; for EC50: geometric mean, read-out: hGLP-1R EC50, nM (SEM, n)
Outline: (§1)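 Readings of the HTRF 665/620 nm ratio, which falls as cAMP rises, were converted to nM cAMP using a standard curve after 30 min peptide exposure at 37° C.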

hGIPR = target: T2, hGIPR (Homo sapiens, UniProt P48546); experiment: Functional cAMP formation (HTRF) in HEK-293 clonal cells expressing hGIPR, 0.1% bovine casein, without or with 1.0% human serum albumin; assay type: cell-based; details: for Emax: 37° C., read-out: hGIPR Emax, % ± SEM; for EC50: cAMP, incubated at 37° C., 0.1% bovine casein (no human serum albumin), geometric mean, read-out: hGIPR EC50, nM (SEM, n)
T2 construct: expressed in transfected cells
T2 sequence (P48546 22-466): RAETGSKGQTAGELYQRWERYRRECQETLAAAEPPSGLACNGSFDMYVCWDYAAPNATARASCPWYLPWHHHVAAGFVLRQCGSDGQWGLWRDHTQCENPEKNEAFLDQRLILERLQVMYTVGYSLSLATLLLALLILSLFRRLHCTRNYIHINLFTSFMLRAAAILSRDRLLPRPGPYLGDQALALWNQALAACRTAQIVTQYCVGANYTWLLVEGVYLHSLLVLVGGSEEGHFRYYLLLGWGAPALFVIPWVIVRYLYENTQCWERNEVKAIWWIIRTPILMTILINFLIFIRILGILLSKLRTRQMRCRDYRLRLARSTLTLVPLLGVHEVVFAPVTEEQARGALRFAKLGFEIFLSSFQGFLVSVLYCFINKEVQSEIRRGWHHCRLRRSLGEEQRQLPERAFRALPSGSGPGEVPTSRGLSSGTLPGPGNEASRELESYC
Outline: as §1

hGCGR = target: T3, hGCGR (Homo sapiens, UniProt P47871); experiment: Functional cAMP formation (HTRF) in HEK-293 clonal cells expressing hGCGR, 0.1% bovine casein, without or with 1.0% human serum albumin; assay type: cell-based; details: geometric mean, read-out: hGCGR EC50, nM (SEM, n)
T3 construct: expressed in transfected cells
Outline: as §1

[2] = HEK293, 0.1% bovine casein and 1.0% human serum albumin, 37° C., percent of maximal response to GLP-1(7-36)NH2
[3] = HEK293, percent of maximal response to GLP-1(7-36)NH2, 37° C., 0.1% bovine casein, arithmetic mean
[4] = HEK293, 0.1% bovine casein and 1.0% human serum albumin, percent of maximal response to GIP(1-42)NH2
[5] = HEK293, percent of maximal response to GIP(1-42)NH2, 0.1% bovine casein, arithmetic mean
[6] = 0.1% bovine casein and 1.0% human serum albumin, 37° C.
[7] = cAMP, incubated at 37° C., 0.1% bovine casein (no human serum albumin)

Sequence of hGLP-1R (P43220 24-463): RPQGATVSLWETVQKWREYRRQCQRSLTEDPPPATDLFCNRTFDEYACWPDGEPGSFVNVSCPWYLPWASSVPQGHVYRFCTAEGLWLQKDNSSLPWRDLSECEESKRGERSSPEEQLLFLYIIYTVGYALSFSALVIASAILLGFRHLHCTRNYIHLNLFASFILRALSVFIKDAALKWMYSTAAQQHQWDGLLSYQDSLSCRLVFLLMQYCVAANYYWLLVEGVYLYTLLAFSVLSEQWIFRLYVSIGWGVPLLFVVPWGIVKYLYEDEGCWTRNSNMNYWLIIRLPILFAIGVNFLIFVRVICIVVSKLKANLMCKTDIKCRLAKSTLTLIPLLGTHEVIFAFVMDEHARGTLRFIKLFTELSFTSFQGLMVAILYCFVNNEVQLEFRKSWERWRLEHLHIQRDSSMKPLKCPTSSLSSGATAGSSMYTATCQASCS
T1 sequence (P47871 26-477): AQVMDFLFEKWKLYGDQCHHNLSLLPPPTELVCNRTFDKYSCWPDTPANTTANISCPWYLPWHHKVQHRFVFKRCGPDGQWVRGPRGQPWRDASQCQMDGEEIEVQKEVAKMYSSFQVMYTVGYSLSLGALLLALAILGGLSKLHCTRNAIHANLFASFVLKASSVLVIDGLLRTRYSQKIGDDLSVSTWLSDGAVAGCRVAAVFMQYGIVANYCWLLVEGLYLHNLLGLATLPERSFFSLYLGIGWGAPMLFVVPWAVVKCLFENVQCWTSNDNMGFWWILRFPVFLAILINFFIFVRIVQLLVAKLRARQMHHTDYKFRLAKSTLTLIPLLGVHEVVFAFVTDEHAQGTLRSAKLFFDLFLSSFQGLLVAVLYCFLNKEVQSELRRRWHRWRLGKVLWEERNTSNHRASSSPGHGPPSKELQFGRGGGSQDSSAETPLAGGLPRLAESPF
T3 sequence (P47871 26-477): as above

`CC[C@H](C)[C@H](NC(=O)[C@H](CC(C)C)NC(=O)[C@](C)(Cc1ccc(O)cc1)NC(=O)[C@@H](CCC(=O)O)NC(=O)[C@@H](NC(=O)[C@H](Cc1ccccc1)NC(=O)[C@H](CCC(=O)O)NC(=O)C(C)(C)NC(=O)[C@H](CCC(N)=O)NC(=O)[C@H](C)NC(=O)[C@H](CCCCNC(=O)COCCOCCNC(=O)COCCOCCNC(=O)CC[C@H](NC(=O)CCCCCCCCCCCCC(=O)O)C(=O)O)NC(=O)[C@H](CCCN)NC(=O)[C@H](CC(=O)O)NC(=O)[C@H](CC(C)C)NC(=O)[C@](C)(Cc1ccccc1)NC(=O)[C@@H](NC(=O)[C@H](CO)NC(=O)[C@H](Cc1ccncc1)NC(=O)[C@H](CC(=O)O)NC(=O)[C@H](CO)NC(=O)[C@@H](NC(=O)[C@](C)(Cc1ccccc1)NC(=O)[C@@H](NC(=O)CNC(=O)[C@H](CCC(=O)O)NC(=O)C(C)(C)NC(=O)[C@@H](N)Cc1ccc(O)cc1)[C@@H](C)O)[C@@H](C)O)[C@@H](C)CC)[C@@H](C)CC)C(=O)N[C@@H](CCC(=O)O)C(=O)NCC(=O)NCC(=O)N[C@@H](CCCCNC(=O)COCCOCCNC(=O)COCCOCCNC(=O)CC[C@H](NC(=O)CCCCCCCCCCCCC(=O)O)C(=O)O)C(=O)N[C@@H](CO)C(=O)N[C@@H](CO)C(=O)NCC(=O)N[C@@H](C)C(=O)N1CCC[C@H]1C(=O)N1CCC[C@H]1C(=O)N1CCC[C@H]1C(=O)N[C@@H](CO)C(N)=O` [Example 46] gave a Ki [1] of over 966 nM, an Emax (hGLP-1R; [2]) of 117% and an Emax (hGLP-1R; [3]) of 79.2 ± 1.23%. For the same compound, the Emax (hGIPR; [4]) was 73.3%, the Emax (hGIPR; [5]) was 89.5 ± 2.64% and the EC50 (hGCGR; [6]) was over 9950 nM. It also gave an EC50 (hGCGR; [7]) of over 9950 nM.

In the case of `CC[C@H](C)[C@H](NC(=O)[C@H](CC(C)C)NC(=O)[C@](C)(Cc1ccccc1)NC(=O)[C@@H](CCC(=O)O)NC(=O)[C@@H](NC(=O)[C@H](Cc1ccccc1)NC(=O)[C@H](CCC(=O)O)NC(=O)C(C)(C)NC(=O)[C@H](CCC(N)=O)NC(=O)[C@H](C)NC(=O)[C@H](CCCCNC(=O)COCCOCCNC(=O)COCCOCCNC(=O)CC[C@H](NC(=O)CCCCCCCCCCCCC(=O)O)C(=O)O)NC(=O)[C@H](CCCN)NC(=O)[C@H](CC(=O)O)NC(=O)[C@H](CC(C)C)NC(=O)[C@](C)(CC(C)C)NC(=O)[C@@H](NC(=O)[C@H](CO)NC(=O)[C@H](Cc1ccncc1)NC(=O)[C@H](CC(=O)O)NC(=O)[C@H](CO)NC(=O)[C@@H](NC(=O)[C@](C)(Cc1ccccc1)NC(=O)[C@@H](NC(=O)CNC(=O)[C@H](CCC(=O)O)NC(=O)C(C)(C)NC(=O)[C@@H](N)Cc1ccc(O)cc1)[C@@H](C)O)[C@@H](C)O)[C@@H](C)CC)[C@@H](C)CC)C(=O)N[C@@H](CCC(=O)O)C(=O)NCC(=O)NCC(=O)N[C@@H](CCCCNC(=O)COCCOCCNC(=O)COCCOCCNC(=O)CC[C@H](NC(=O)CCCCCCCCCCCCC(=O)O)C(=O)O)C(=O)N[C@@H](CO)C(=O)N[C@@H](CO)C(=O)NCC(=O)N[C@@H](C)C(=O)N1CCC[C@H]1C(=O)N1CCC[C@H]1C(=O)N1CCC[C@H]1C(=O)N[C@@H](CO)C(N)=O` [Example 48], the Ki [1] is reported as over 966 nM, the Emax (hGLP-1R; [2]) is reported as 111% and the Emax (hGLP-1R; [3]) is reported as 87.8 ± 6.25%. The EC50 (hGLP-1R; [7]) was 1 nM, the Emax (hGIPR; [4]) was 90.8% and the Emax (hGIPR; [5]) was 91.6 ± 3.38%. It also gave an EC50 (hGIPR) of 0.0182 nM, an EC50 (hGCGR; [6]) of over 9950 nM and an EC50 (hGCGR; [7]) of over 9950 nM.

Work on `CC[C@H](C)[C@H](NC(=O)[C@H](CC(C)C)NC(=O)[C@](C)(Cc1ccc(O)cc1)NC(=O)[C@@H](CCC(=O)O)NC(=O)[C@@H](NC(=O)[C@H](Cc1cccc(Cl)c1)NC(=O)[C@H](CCC(=O)O)NC(=O)C(C)(C)NC(=O)[C@H](CCC(N)=O)NC(=O)[C@H](C)NC(=O)[C@H](CCCCNC(=O)COCCOCCNC(=O)COCCOCCNC(=O)CC[C@H](NC(=O)CCCCCCCCCCCCC(=O)O)C(=O)O)NC(=O)[C@H](CCCN)NC(=O)[C@H](CC(=O)O)NC(=O)[C@H](CC(C)C)NC(=O)[C@](C)(CC(C)C)NC(=O)[C@@H](NC(=O)[C@H](CO)NC(=O)[C@H](Cc1ccncc1)NC(=O)[C@H](CC(=O)O)NC(=O)[C@H](CO)NC(=O)[C@@H](NC(=O)[C@](C)(Cc1ccccc1F)NC(=O)[C@@H](NC(=O)CNC(=O)[C@H](CCC(=O)O)NC(=O)C(C)(C)NC(=O)[C@@H](N)Cc1ccc(O)cc1)[C@@H](C)O)[C@@H](C)O)[C@@H](C)CC)[C@@H](C)CC)C(=O)N[C@@H](CCC(=O)O)C(=O)NCC(=O)NCC(=O)N[C@@H](CCCCNC(=O)COCCOCCNC(=O)COCCOCCNC(=O)CC[C@H](NC(=O)CCCCCCCCCCCCC(=O)O)C(=O)O)C(=O)N[C@@H](CO)C(=O)N[C@@H](CO)C(=O)NCC(=O)N[C@@H](C)C(=O)N1CCC[C@H]1C(=O)N1CCC[C@H]1C(=O)N1CCC[C@H]1C(=O)N[C@@H](CO)C(N)=O` [Example 62] yielded a Ki [1] of over 4780 nM, an Emax (hGLP-1R; [2]) of 85.8 ± 3.31% and an Emax (hGLP-1R; [3]) of 99.4 ± 5.83%. The Emax (hGIPR; [4]) was 94.3 ± 0.785%, the Emax (hGIPR; [5]) was 96.1 ± 2.64% and the EC50 (hGIPR) was 0.0211 nM. The EC50 (hGCGR; [6]) was over 9950 nM and the EC50 (hGCGR; [7]) was over 9950 nM.

With `CC[C@H](C)[C@H](NC(=O)[C@H](CCCN)NC(=O)[C@H](CC(=O)O)NC(=O)[C@H](CC(C)C)NC(=O)[C@](C)(CC(C)C)NC(=O)[C@@H](NC(=O)[C@H](CO)NC(=O)[C@H](Cc1ccncc1)NC(=O)[C@H](CC(=O)O)NC(=O)[C@H](CO)NC(=O)[C@@H](NC(=O)[C@](C)(Cc1ccccc1F)NC(=O)[C@@H](NC(=O)CNC(=O)[C@H](CCC(=O)O)NC(=O)C(C)(C)NC(=O)[C@@H](N)Cc1ccc(O)cc1)[C@@H](C)O)[C@@H](C)O)[C@@H](C)CC)C(=O)N[C@@H](C)C(=O)N[C@@H](CCC(N)=O)C(=O)NC(C)(C)C(=O)N[C@@H](CCC(=O)O)C(=O)N[C@@H](Cc1ccccc1)C(=O)N[C@H](C(=O)N[C@@H](CCCCNC(=O)COCCOCCNC(=O)COCCOCCNC(=O)CC[C@H](NC(=O)CCCCCCCCCCCCC(=O)O)C(=O)O)C(=O)N[C@@](C)(Cc1ccc(O)cc1)C(=O)N[C@@H](CC(C)C)C(=O)N[C@H](C(=O)N[C@@H](CCCCNC(=O)COCCOCCNC(=O)COCCOCCNC(=O)CC[C@H](NC(=O)CCCCCCCCCCCCC(=O)O)C(=O)O)C(=O)NCC(=O)NCC(=O)N1CCC[C@H]1C(=O)N[C@@H](CO)C(=O)N[C@@H](CO)C(=O)NCC(=O)N[C@@H](C)C(=O)N1CCC[C@H]1C(=O)N1CCC[C@H]1C(=O)N1CCC[C@H]1C(=O)N[C@@H](CO)C(N)=O)[C@@H](C)CC)[C@@H](C)CC` [Example 70] the Ki [1] was 151 nM, the EC50 (hGLP-1R; [6]) was 27 nM and the Emax (hGLP-1R; [3]) was 100 ± 3.11%. It also gave an Emax (hGIPR; [4]) of 89.9 ± 0.987%, an Emax (hGIPR; [5]) of 89.1 ± 2.3% and an EC50 (hGIPR) of 0.0182 nM. For the same compound, the EC50 (hGCGR; [6]) was over 9950 nM and the EC50 (hGCGR; [7]) was over 9950 nM.

`CC[C@H](C)[C@H](NC(=O)[C@H](CCCN)NC(=O)[C@H](CC(=O)O)NC(=O)[C@H](CC(C)C)NC(=O)[C@](C)(CC(C)C)NC(=O)[C@@H](NC(=O)C(C)(C)NC(=O)[C@H](Cc1ccncc1)NC(=O)[C@H](CC(=O)O)NC(=O)[C@H](CO)NC(=O)[C@@H](NC(=O)[C@](C)(Cc1ccccc1F)NC(=O)[C@@H](NC(=O)CNC(=O)[C@H](CCC(=O)O)NC(=O)C(C)(C)NC(=O)[C@@H](N)Cc1ccc(O)cc1)[C@@H](C)O)[C@@H](C)O)[C@@H](C)CC)C(=O)N[C@@H](C)C(=O)N[C@@H](CCC(N)=O)C(=O)NC(C)(C)C(=O)N[C@@H](CCC(=O)O)C(=O)N[C@@H](Cc1ccccc1)C(=O)N[C@H](C(=O)N[C@@H](CCCCNC(=O)COCCOCCNC(=O)COCCOCCNC(=O)CC[C@H](NC(=O)CCCCCCCCCCCCC(=O)O)C(=O)O)C(=O)N[C@@](C)(Cc1ccc(O)cc1)C(=O)N[C@@H](CC(C)C)C(=O)N[C@H](C(=O)N[C@@H](CCCCNC(=O)COCCOCCNC(=O)COCCOCCNC(=O)CC[C@H](NC(=O)CCCCCCCCCCCCC(=O)O)C(=O)O)C(=O)NCC(=O)NCC(=O)N1CCC[C@H]1C(=O)N[C@@H](CO)C(=O)N[C@@H](CO)C(=O)NCC(=O)N[C@@H](C)C(=O)N1CCC[C@H]1C(=O)N1CCC[C@H]1C(=O)N1CCC[C@H]1C(=O)N[C@@H](CO)C(N)=O)[C@@H](C)CC)[C@@H](C)CC` [Example 219] was tested, and the Ki [1] was 135 nM, the EC50 (hGLP-1R; [7]) was 0.376 nM and the Emax (hGIPR; [4]) was 82.9%. For the same compound, the Emax (hGIPR; [5]) was 96.7%, the EC50 (hGIPR) was 0.0227 nM and the EC50 (hGCGR; [6]) was over 9950 nM. It also gave an EC50 (hGCGR; [7]) of over 9950 nM.
